# From ChEMBL document CHEMBL1159083, “An octahydro-cyclopenta[c]pyrrole series of inhibitors of the type 1 glycine transporter” (Bioorg Med Chem Lett, 2010)
# Assay: Half life in human microsomes
# Format: ADME, Microsome
row,SMILES,half-life [min]
1,CN1C[C@H]2C[C@@H](N(Cc3ccc(F)c(OC4CCCC4)c3)C(=O)c3cn(C)cn3)C[C@H]2C1,78.1
2,Cn1cnc(C(=O)N(Cc2cccc(OC3CCCC3)c2)[C@H]2C[C@H]3CNC[C@H]3C2)c1,> 120
3,CN1C[C@H]2C[C@@H](N(Cc3cccc(OC(F)(F)F)c3)C(=O)c3cn(C)cn3)C[C@H]2C1,30.5
4,CC(F)CN1C[C@H]2C[C@@H](N(Cc3cccc(OC(F)(F)F)c3)C(=O)c3cn(C)cn3)C[C@H]2C1 (stereo partly specified),< 3.2
5,Cn1cnc(C(=O)N(Cc2cccc(OC(F)(F)F)c2)[C@@H]2C[C@@H]3CN(CC(O)c4ccccc4)C[C@@H]3C2)c1 (stereo partly specified),8.19
6,Cn1cnc(C(=O)N(Cc2cccc(OC(F)(F)F)c2)[C@@H]2C[C@@H]3CN(CC(C)(C)O)C[C@@H]3C2)c1,7.06
7,CCN1C[C@H]2C[C@@H](N(Cc3cccc(OC(F)(F)F)c3)C(=O)c3cn(C)cn3)C[C@H]2C1,10
8,Cn1cnc(C(=O)N(Cc2cccc(OC(F)(F)F)c2)[C@@H]2C[C@@H]3CN(CCC(F)(F)F)C[C@@H]3C2)c1,< 3.2

# Other lines, results leading:
row,half-life [min],SMILES
1,50,Cn1cnc(C(=O)N(Cc2cccc(OC(F)(F)F)c2)[C@H]2C[C@H]3CNC[C@H]3C2)c1
2,> 120,CCN1C[C@H]2C[C@@H](N(Cc3ccc(F)c(C(F)(F)F)c3)C(=O)c3cn(C)cn3)C[C@H]2C1
3,> 120,CN1C[C@H]2C[C@@H](N(Cc3ccc(F)c(C(F)(F)F)c3)C(=O)c3cn(C)cn3)C[C@H]2C1
4,> 120,COc1ccc(CN(C(=O)c2cn(C)cn2)[C@H]2C[C@H]3CNC[C@H]3C2)cc1OC1CCCC1
5,> 120,Cn1cnc(C(=O)N(Cc2ccc(F)c(C(F)(F)F)c2)[C@@H]2C[C@H]3CNC[C@H]3C2)c1
6,> 111,Cn1cnc(C(=O)N(Cc2ccc(F)c(OC3CCCC3)c2)[C@H]2C[C@H]3CNC[C@H]3C2)c1
7,> 120,CC(C)Oc1cccc(CN(C(=O)c2cn(C)cn2)[C@H]2C[C@H]3CNC[C@H]3C2)c1
8,> 120,Cn1cnc(C(=O)N(Cc2ccc(F)c(C(F)(F)F)c2)[C@H]2C[C@H]3CNC[C@H]3C2)c1
